Results published in ChEMBL document CHEMBL1201861, “Genomics of Drug Sensitity in Cancer screening data, Wellcome Trust Sanger Institute”.

How the values were obtained:
COLO-741 = assay: cells; format: functional, cell-based; conditions: Homo sapiens
Description: SANGER: Inhibition of human COLO-741 cell growth in a cell viability assay.

Capan-2 = assay: cells; format: functional, cell-based; conditions: Homo sapiens;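 further: Capan-2 cell growth inhibition, read out with a viability assay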
Description: SANGER: Inhibition of human Capan-2 cell growth in a cell viability assay.

D-247MG = assay: cells; format: functional, cell-based; conditions: Homo sapiens
Description: SANGER: Inhibition of human D-247MG cell growth in a cell viability assay.

D-392MG = assay: cells; format: functional, cell-based; conditions: Homo sapiens
G-402 = assay: cells; format: functional, cell-based; conditions: Homo sapiens
Description: SANGER: Inhibition of human G-402 cell growth in a cell viability assay.

GP5d = assay: cells; format: functional, cell-based; conditions: Homo sapiens;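 further: growth inhibition of human GP5d cells, read out with a cell viability assay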
Description: SANGER: Inhibition of human GP5d cell growth in a cell viability assay.

HCC1569 = assay: cells; format: functional, cell-based; conditions: Homo sapiens;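 further: growth inhibition of human HCC1569 cells, read out with a cell viability assay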
Description: SANGER: Inhibition of human HCC1569 cell growth in a cell viability assay.

HuCCT-1 = assay: cells; format: functional, cell-based, HuCCT1; conditions: Homo sapiens;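 further: growth inhibition of HuCCT-1 cells, read out by a cell viability assay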
Description: SANGER: Inhibition of human HuCCT1 cell growth in a cell viability assay.

Huh-7 = assay: cells; format: functional, cell-based; conditions: Homo sapiens;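 further: HuH-7 cell growth inhibition, read out with a cell viability assay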
Description: SANGER: Inhibition of human HuH-7 cell growth in a cell viability assay.

KOSC-2 = assay: cells; format: functional, cell-based; conditions: Homo sapiens;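 further: growth inhibition of KOSC-2 cells, read out by a cell viability assay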
Description: SANGER: Inhibition of human KOSC-2 cell growth in a cell viability assay.

KYSE-140 = assay: cells; format: functional, cell-based; conditions: Homo sapiens;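 further: cell viability assay measuring growth inhibition in human KYSE-140 cells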
Description: SANGER: Inhibition of human KYSE-140 cell growth in a cell viability assay.

LoVo = assay: cells; format: functional, cell-based; conditions: Homo sapiens;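 further: growth inhibition of human LoVo cells, read out with a cell viability assay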
Description: SANGER: Inhibition of human LoVo cell growth in a cell viability assay.

MKN-1 = assay: cells; format: functional, cell-based; conditions: Homo sapiens;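 further: growth inhibition of human MKN1 cells, read out by a cell viability measurement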
Description: SANGER: Inhibition of human MKN1 cell growth in a cell viability assay.

NCI-H1693 = assay: cells; format: functional, cell-based; conditions: Homo sapiens;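 further: growth inhibition of the human cell line, read out with a cell viability assay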
Description: SANGER: Inhibition of human NCI-H1693 cell growth in a cell viability assay.

NCI-H1703 = assay: cells; format: functional, cell-based; conditions: Homo sapiens;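 further: growth inhibition of NCI-H1703 cells, read out via a cell viability assay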
Description: SANGER: Inhibition of human NCI-H1703 cell growth in a cell viability assay.

NCI-H2087 = assay: cells; format: functional, cell-based; conditions: Homo sapiens;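 further: growth inhibition determined with a cell viability readout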
Description: SANGER: Inhibition of human NCI-H2087 cell growth in a cell viability assay.

NCI-H2347 = assay: cells; format: functional, cell-based; conditions: Homo sapiens;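 further: growth inhibition of the cell line, read out with a cell viability assay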
Description: SANGER: Inhibition of human NCI-H2347 cell growth in a cell viability assay.

NCI-H2452 = assay: cells; format: functional, cell-based; conditions: Homo sapiens;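 further: growth inhibition of NCI-H2452 cells, read out with a cell viability assay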
Description: SANGER: Inhibition of human NCI-H2452 cell growth in a cell viability assay.

OE33 = assay: cells; format: functional, cell-based; conditions: Homo sapiens;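 further: growth inhibition of human OE33 cells, measured by a cell viability assay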
Description: SANGER: Inhibition of human OE33 cell growth in a cell viability assay.

OVCAR-8 = assay: cells; format: functional, cell-based; conditions: Homo sapiens;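 further: growth inhibition of human OVCAR-8 cells, read out by a cell viability assay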
Description: SANGER: Inhibition of human OVCAR-8 cell growth in a cell viability assay.

PANC-03-27 = assay: cells; format: functional, cell-based; conditions: Homo sapiens
Description: SANGER: Inhibition of human PANC-03-27 cell growth in a cell viability assay.

PFSK-1 = assay: cells; format: functional, cell-based; conditions: Homo sapiens;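 further: cell viability assay measuring how strongly compounds suppress growth of human PFSK-1 cells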
Description: SANGER: Inhibition of human PFSK-1 cell growth in a cell viability assay.

SK-N-AS = assay: cells; format: functional, cell-based; conditions: Homo sapiens;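 further: growth inhibition of human SK-N-AS cells, measured with a cell viability assay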
Description: SANGER: Inhibition of human SK-N-AS cell growth in a cell viability assay.

SN12C = assay: cells; format: functional, cell-based; conditions: Homo sapiens;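 further: growth inhibition of human SN12C cells, measured by a cell viability assay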
Description: SANGER: Inhibition of human SN12C cell growth in a cell viability assay.

SNU-449 = assay: cells; format: functional, cell-based; conditions: Homo sapiens
Description: SANGER: Inhibition of human SNU-449 cell growth in a cell viability assay.

SW1088 = assay: cells; format: functional, cell-based; conditions: Homo sapiens;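 further: growth inhibition of human SW1088 cells, read out by a cell viability assay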
Description: SANGER: Inhibition of human SW1088 cell growth in a cell viability assay.

SW 1116 = assay: cells; format: functional, cell-based; conditions: Homo sapiens;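 further: growth inhibition of SW1116 cells, read out with a cell viability assay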
Description: SANGER: Inhibition of human SW1116 cell growth in a cell viability assay.

SW13 = assay: cells; format: functional, cell-based; conditions: Homo sapiens;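 further: IC50 is inhibition of SW13 cell growth, read out with a cell viability assay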
Description: SANGER: Inhibition of human SW13 cell growth in a cell viability assay.

TCC-SUP = assay: cells; format: functional, cell-based; conditions: Homo sapiens;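 further: growth inhibition of TCC-SUP cells, read out with a cell viability assay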
Description: SANGER: Inhibition of human TCCSUP cell growth in a cell viability assay.

769-P = assay: cells; format: functional, cell-based; conditions: Homo sapiens
Description: SANGER: Inhibition of human 769-P cell growth in a cell viability assay.

A-427 = assay: cells; format: functional, cell-based; conditions: Homo sapiens;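 further: growth inhibition of human A-427 cells, read out by a cell viability assay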
Description: SANGER: Inhibition of human A427 cell growth in a cell viability assay.

BHY = assay: cells; format: functional, cell-based; conditions: Homo sapiens;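 further: cell growth inhibition read out by a viability assay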
Description: SANGER: Inhibition of human BHY cell growth in a cell viability assay.

CAKI-1 = assay: cells; format: functional, cell-based; conditions: Homo sapiens;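 further: growth inhibition of CAKI-1 cells, measured by a cell viability assay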
Description: SANGER: Inhibition of human CAKI-1 cell growth in a cell viability assay.

CAL-120 = assay: cells; format: functional, cell-based; conditions: Homo sapiens;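 further: cell growth inhibition, read out as cell viability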
Description: SANGER: Inhibition of human CAL-120 cell growth in a cell viability assay.

CAL-27 = assay: cells; format: functional, cell-based; conditions: Homo sapiens;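 further: Viability-based readout, IC50 reflecting inhibition of CAL-27 cell growth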
Description: SANGER: Inhibition of human CAL-27 cell growth in a cell viability assay.

CAL-33 = assay: cells; format: functional, cell-based; conditions: Homo sapiens;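 further: growth inhibition of CAL-33 cells, read out with a cell viability assay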
Description: SANGER: Inhibition of human CAL-33 cell growth in a cell viability assay.

UMUC3 = assay: cells; format: functional, cell-based; conditions: Homo sapiens;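 further: growth inhibition of human UM-UC-3 cells, read out with a cell viability assay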
Description: SANGER: Inhibition of human UM-UC-3 cell growth in a cell viability assay.

COLO-680N = assay: cells; format: functional, cell-based; conditions: Homo sapiens;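 further: cell viability assay used to measure inhibition of COLO-680N cell growth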
Description: SANGER: Inhibition of human COLO-680N cell growth in a cell viability assay.

D-336MG = assay: cells; format: functional, cell-based; conditions: Homo sapiens
Description: SANGER: Inhibition of human D-336MG cell growth in a cell viability assay.

D-542MG = assay: cells; format: functional, cell-based; conditions: Homo sapiens
Description: SANGER: Inhibition of human D-542MG cell growth in a cell viability assay.

CAL-51 = assay: cells; format: functional, cell-based; conditions: Homo sapiens;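 further: human CAL-51 cell line, growth inhibition read out via a cell viability assay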
Description: SANGER: Inhibition of human CAL-51 cell growth in a cell viability assay.

CAL-85-1 = assay: cells; format: functional, cell-based; conditions: Homo sapiens;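 further: growth inhibition of human CAL-85-1 cells, read out with a cell viability assay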
Description: SANGER: Inhibition of human CAL-85-1 cell growth in a cell viability assay.

COLO-679 = assay: cells; format: functional, cell-based; conditions: Homo sapiens
Description: SANGER: Inhibition of human COLO-679 cell growth in a cell viability assay.

COR-L279 = assay: SANGER: Inhibition of human COR-L279 cell growth in a cell viability assay.; format: functional, cell-based
CPC-N = assay: cells; format: functional, cell-based; conditions: Homo sapiens;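 further: growth inhibition of CPC-N cells, with a cell viability assay as the readout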
Description: SANGER: Inhibition of human CPC-N cell growth in a cell viability assay.

GDM-1 = assay: cells; format: functional, cell-based; conditions: Homo sapiens;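 further: cell viability readout used to measure growth inhibition of human GDM-1 cells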
Description: SANGER: Inhibition of human GDM-1 cell growth in a cell viability assay.

HCC1599 = assay: cells; format: functional, cell-based; conditions: Homo sapiens;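 further: growth inhibition of HCC1599 cells, read out in a cell viability assay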
Description: SANGER: Inhibition of human HCC1599 cell growth in a cell viability assay.

KARPAS-422 = assay: cells; format: functional, cell-based; conditions: Homo sapiens
Description: SANGER: Inhibition of human KARPAS-422 cell growth in a cell viability assay.

LB647-SCLC = assay: cells; format: functional, cell-based; conditions: Homo sapiens;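 further: cell growth inhibition, read out by a viability assay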
Description: SANGER: Inhibition of human LB647-SCLC cell growth in a cell viability assay.

MDA-MB-134-VI = assay: cells; format: functional, cell-based; conditions: Homo sapiens
Description: SANGER: Inhibition of human MDA-MB-134-VI cell growth in a cell viability assay.

NB1 = assay: cells; format: functional, cell-based; conditions: Homo sapiens;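 further: reduction of NB1 cell proliferation, read out with a viability assay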
Description: SANGER: Inhibition of human NB1 cell growth in a cell viability assay.

NCI-H1694 = assay: cells; format: functional, cell-based; conditions: Homo sapiens;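 further: cell viability assay measuring inhibition of growth in human NCI-H1694 cells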
Description: SANGER: Inhibition of human NCI-H1694 cell growth in a cell viability assay.

NCI-H716 = assay: cells; format: functional, cell-based; conditions: Homo sapiens;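 further: growth inhibition of human NCI-H716 cells, measured by a cell viability assay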
Description: SANGER: Inhibition of human NCI-H716 cell growth in a cell viability assay.

NCI-H889 = assay: cells; format: functional, cell-based; conditions: Homo sapiens;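 further: cell growth inhibition of the cell line, read out with a viability assay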
Description: SANGER: Inhibition of human NCI-H889 cell growth in a cell viability assay.

RPMI-6666 = assay: cells; format: functional, cell-based; conditions: Homo sapiens
Description: SANGER: Inhibition of human RPMI-6666 cell growth in a cell viability assay.

ST486 = assay: SANGER: Inhibition of human ST486 cell growth in a cell viability assay.; format: functional, cell-based
TUR = assay: cells; format: functional, cell-based; conditions: Homo sapiens;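 further: growth inhibition of human TUR cells, read out with a cell viability assay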
Description: SANGER: Inhibition of human TUR cell growth in a cell viability assay.

UACC-812 = assay: cells; format: functional, cell-based; conditions: Homo sapiens
Description: SANGER: Inhibition of human UACC-812 cell growth in a cell viability assay.

WSU-NHL = assay: cells; format: functional, cell-based; conditions: Homo sapiens;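 further: growth inhibition of human WSU-NHL cells, read out with a cell viability assay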
Description: SANGER: Inhibition of human WSU-NHL cell growth in a cell viability assay.

Compound: NC(=O)c1ncn([C@@H]2O[C@H](COP(=O)(O)O)[C@@H](O)[C@H]2O)c1N
- IC50 (COLO-741): > 2000 µM
- IC50 (Capan-2): > 2000 µM
- IC50 (D-247MG): > 2000 µM
- IC50 (D-392MG): > 2000 µM
- IC50 (G-402): 1320 µM
- IC50 (GP5d): 1770 µM
- IC50 (HCC1569): 994 µM
- IC50 (HuCCT-1): 1080 µM
- IC50 (Huh-7): > 2000 µM
- IC50 (KOSC-2): 526 µM
- IC50 (KYSE-140): 1730 µM
- IC50 (LoVo): > 2000 µM
- IC50 (MKN-1): > 2000 µM
- IC50 (NCI-H1693): > 2000 µM
- IC50 (NCI-H1703): > 2000 µM
- IC50 (NCI-H2087): > 2000 µM
- IC50 (NCI-H2347): > 2000 µM
- IC50 (NCI-H2452): > 2000 µM
- IC50 (OE33): 1330 µM
- IC50 (OVCAR-8): > 2000 µM
- IC50 (PANC-03-27): > 2000 µM
- IC50 (PFSK-1): > 2000 µM
- IC50 (SK-N-AS): > 2000 µM
- IC50 (SN12C): > 2000 µM
- IC50 (SNU-449): > 2000 µM
- IC50 (SW1088): > 2000 µM
- IC50 (SW 1116): > 2000 µM
- IC50 (SW13): > 2000 µM
- IC50 (TCC-SUP): 1030 µM
- IC50 (769-P): > 2000 µM
- IC50 (A-427): > 2000 µM
- IC50 (BHY): 405 µM
- IC50 (CAKI-1): > 2000 µM
- IC50 (CAL-120): 838 µM
- IC50 (CAL-27): > 2000 µM
- IC50 (CAL-33): 1310 µM
- IC50 (UMUC3): 1750 µM
- IC50 (COLO-680N): > 2000 µM

Compound: COc1cc(Nc2c(C#N)cnc3cc(OCCCN4CCN(C)CC4)c(OC)cc23)c(Cl)cc1Cl [BOSUTINIB]
- IC50 (COLO-741): > 2 µM
- IC50 (Capan-2): > 2 µM
- IC50 (D-247MG): > 2 µM
- IC50 (D-336MG): > 2 µM
- IC50 (D-392MG): > 2 µM
- IC50 (D-542MG): > 2 µM
- IC50 (G-402): > 2 µM
- IC50 (GP5d): > 2 µM
- IC50 (HCC1569): > 2 µM
- IC50 (HuCCT-1): > 2 µM
- IC50 (Huh-7): > 2 µM
- IC50 (KOSC-2): 1.32 µM
- IC50 (KYSE-140): 1.76 µM
- IC50 (LoVo): 1.98 µM
- IC50 (MKN-1): > 2 µM
- IC50 (NCI-H1693): 2 µM
- IC50 (NCI-H1703): > 2 µM
- IC50 (NCI-H2087): > 2 µM
- IC50 (NCI-H2347): > 2 µM
- IC50 (NCI-H2452): > 2 µM
- IC50 (OE33): > 2 µM
- IC50 (OVCAR-8): > 2 µM
- IC50 (PANC-03-27): > 2 µM
- IC50 (PFSK-1): > 2 µM
- IC50 (SK-N-AS): > 2 µM
- IC50 (SN12C): > 2 µM
- IC50 (SNU-449): > 2 µM
- IC50 (SW1088): > 2 µM
- IC50 (SW 1116): > 2 µM
- IC50 (SW13): 0.738 µM
- IC50 (TCC-SUP): > 2 µM
- IC50 (769-P): 1.7 µM
- IC50 (A-427): > 2 µM
- IC50 (BHY): 1.23 µM
- IC50 (CAKI-1): > 2 µM
- IC50 (CAL-120): > 2 µM
- IC50 (CAL-27): 0.929 µM
- IC50 (CAL-33): 1.19 µM
- IC50 (CAL-51): > 2 µM
- IC50 (CAL-85-1): > 2 µM
- IC50 (UMUC3): > 2 µM
- IC50 (COLO-679): > 2 µM
- IC50 (COLO-680N): > 2 µM

Compound: CCn1c(-c2nonc2N)nc2cnc(Oc3cccc(NC(=O)c4ccc(OCCN5CCOCC5)cc4)c3)cc21 [GSK-269962A]
- IC50 (COR-L279): 2.07 µM
- IC50 (CPC-N): > 2.5 µM
- IC50 (D-247MG): 0.628 µM
- IC50 (D-336MG): 0.629 µM
- IC50 (D-392MG): 1.43 µM
- IC50 (D-542MG): > 2.5 µM
- IC50 (GDM-1): > 2.5 µM
- IC50 (HCC1599): > 2.5 µM
- IC50 (KARPAS-422): > 2.5 µM
- IC50 (LB647-SCLC): > 2.5 µM
- IC50 (MDA-MB-134-VI): > 2.5 µM
- IC50 (NB1): > 2.5 µM
- IC50 (NCI-H1694): > 2.5 µM
- IC50 (NCI-H716): > 2.5 µM
- IC50 (NCI-H889): > 2.5 µM
- IC50 (RPMI-6666): > 2.5 µM
- IC50 (ST486): > 2.5 µM
- IC50 (TUR): > 2.5 µM
- IC50 (UACC-812): > 2.5 µM
- IC50 (WSU-NHL): > 2.5 µM

Compound: Cc1n[nH]c2ccc(-c3cncc(OC[C@@H](N)Cc4c[nH]c5ccccc45)c3)cc12 [A-443654]
- IC50 (COR-L279): 0.57 µM
- IC50 (CPC-N): 0.304 µM
- IC50 (D-247MG): 0.974 µM
- IC50 (D-336MG): 0.421 µM
- IC50 (GDM-1): > 1.02 µM
- IC50 (HCC1599): 0.162 µM
- IC50 (KARPAS-422): 0.294 µM
- IC50 (LB647-SCLC): 0.224 µM
- IC50 (MDA-MB-134-VI): 0.489 µM
- IC50 (NB1): 0.117 µM
- IC50 (NCI-H1694): 0.509 µM
- IC50 (NCI-H716): > 1.02 µM
- IC50 (NCI-H889): > 1.02 µM
- IC50 (RPMI-6666): 0.152 µM
- IC50 (ST486): 0.204 µM
- IC50 (TUR): > 1.02 µM
- IC50 (WSU-NHL): > 1.02 µM

Compound: Cc1ccc(NC(=O)c2cccc(C(C)(C)C#N)c2)cc1Nc1ccc2ncn(C)c(=O)c2c1
- IC50 (COR-L279): > 4 µM
- IC50 (CPC-N): > 4 µM
- IC50 (D-247MG): > 4 µM
- IC50 (D-336MG): > 4 µM
- IC50 (D-392MG): 0.356 µM
- IC50 (D-542MG): > 4 µM
- IC50 (GDM-1): 0.229 µM
- IC50 (HCC1599): > 4 µM
- IC50 (KARPAS-422): > 4 µM
- IC50 (LB647-SCLC): > 4 µM
- IC50 (MDA-MB-134-VI): > 4 µM
- IC50 (NB1): > 4 µM
- IC50 (NCI-H1694): > 4 µM
- IC50 (NCI-H716): > 4 µM
- IC50 (NCI-H889): > 4 µM
- IC50 (RPMI-6666): > 4 µM
- IC50 (ST486): 1.39 µM
- IC50 (TUR): > 4 µM
- IC50 (UACC-812): > 4 µM
- IC50 (WSU-NHL): > 4 µM

Compound: Cc1[nH]c(/C=C2\C(=O)Nc3ccc(S(=O)(=O)Cc4c(Cl)cccc4Cl)cc32)c(C)c1C(=O)N1CCC[C@@H]1CN1CCCC1 [PHA-665752]
- IC50 (COR-L279): > 2 µM
- IC50 (CPC-N): > 2 µM
- IC50 (D-247MG): > 2 µM
- IC50 (D-336MG): > 2 µM
- IC50 (GDM-1): > 2 µM
- IC50 (HCC1599): > 2 µM
- IC50 (KARPAS-422): > 2 µM
- IC50 (LB647-SCLC): > 2 µM
- IC50 (MDA-MB-134-VI): > 2 µM
- IC50 (NB1): > 2 µM
- IC50 (NCI-H1694): > 2 µM
- IC50 (NCI-H716): > 2 µM
- IC50 (NCI-H889): > 2 µM
- IC50 (RPMI-6666): > 2 µM
- IC50 (ST486): > 2 µM
- IC50 (TUR): > 2 µM
- IC50 (UACC-812): > 2 µM
- IC50 (WSU-NHL): > 2 µM
